Results reported in patent publication US20080300298A1, “Honokiol Derivates For the Treatment of Proliferative Disorders” (priority 2005, published 2008).
Converted amounts (≈) assume the structure as drawn. Where two headings read alike, the source gives them in different places.

Legend:
[1] = tested on: human multiple myeloma (MM) cell lines; assay: colorimetric (WST-8) growth assay; format: cell-based; conditions: for IC50: Homo sapiens
Source text: Cells: Dexamethasone (Dex)-sensitive MM.1S (wild-type p53) and Dex-resistant MM.1R, RPMI 8226-Dox40 (doxorubicin resistant) and RPMI 8226-LR5 (melphalan resistant) human multiple myeloma (MM) cell lines were used. RPMI-8226 and U266 cells were obtained from the American Type Culture Collection (Rockville, Md.). SU-DHL-4 cells were also utilized. Fresh peripheral blood mononuclear cells (PBMNCs) were obtained from healthy subjects after informed consent. The PBMNC were separated from heparinized peripheral blood by Ficoll-Hipaque density sedimentation. BM specimens were acquired from patients with MM after obtaining informed consent and mononuclear cells were separated by Ficoll-Hipaque density sedimentation. Cells were cultured at 37° C. in RPMI 1640 containing 10% fetal bovine serum (FBS; Sigma, St Louis, Mo.), […], 100 U/mL penicillin, and 100 μg/mL streptomycin (Gibco, Grand Island, N.Y.).
Reagents: Honokiol (HNK; Calbiochem, San Diego, Calif.) was dissolved in ethanol at 20 mg/ml stock solution. Recombinant human interleukin-6 (IL-6), vascular endothelial growth factor (VEGF) and insulin-like growth factor-1 (IGF-1) (R&D Systems, Minneapolis, Minn.) were reconstituted with sterile PBS containing 0.1% FBS (IL-6 and VEGF) and 10 mM of acetic acid containing 0.1% FBS (IGF-1), respectively. Pan-caspase inhibitor z-VAD-fmk (Bachem, Bubendorf, Switzerland) was dissolved in methanol. These reagents were stored at −20° C. and diluted by media just before the use. Doxorubicin (Sigma, St Louis, Mo.) was dissolved in sterile water at the concentration of 3.45 mM. […] Absorbance readings at a wavelength of 450 nm were taken on a spectrophotometer (Molecular Devices Corp., Sunnyvale, Calif.).
HNK inhibits growth of MM cell lines. To identify the therapeutic potential of HNK, MM cell lines and normal PBMNCs were cultured at indicated concentration with HNK for 48 h, and growth was determined by calorimetric assays. […] FIGS. 6A and B show growth inhibition in MM cell lines by HNK as assessed by calorimetric assay after 48 h-culture. […]

[2] = tested on: AKT, p44/42 MAPK, and Src phosphorylation in SVR cells; assay: Western blotting of phosphorylated intracellular proteins; format: cell-based
Source text: FIG. 14 depicts the effects of honokiol on the phosphorylation of various intracellular proteins. […] Cells were lysed and analyzed by Western blotting using antibodies specific for the phosphorylated (P-AKT, P-MAPK, and P-Src) or unphosphorylated forms of AKT and MAPK. […] Cells were lysed and analyzed by Western blotting using antibodies specific for the phosphorylated (P-Akt, P-MAPK, and P-Src) or unphosphorylated forms of Akt and MAPK.

[3] = tested on: caspases, PARP, AIF in MM.1S cells; assay: Western blotting of apoptotic pathway; format: cell-based, human; conditions: 10 ug/ml
KBM-5 cells = assay: Live and dead assay; format: cell-based, human; conditions: KBM-5, TNF 1 nM with honokiol (10 mM printed); TNF alone 5%
Method: (D) depicts that honokiol enhances TNF-induced cell death.
Live and dead assay. The Live and Dead assay (Molecular Probes), which determines intracellular esterase activity and plasma membrane integrity, was used to measure apoptosis. […] It also uses the […] (red fluorescence), which can enter cells only through damaged membranes and bind to nucleic acids but is excluded by the intact plasma membrane of live cells. Briefly, 1×10^5 cells were incubated with […] honokiol for 24 h and then treated with 1 nM TNF for 16 h at 37° C. Cells were stained with the Live and Dead reagent (5 mM ethidium homodimer, 5 mM calcein-AM) and then incubated at 37° C. for 30 min. Cells were analyzed under a fluorescence microscope (Labophot-2, Nikon, Tokyo, Japan).
By using caspase-activated PARP cleavage, it was shown that the enhanced cytotoxicity was due to apoptosis. TNF-induced PARP cleavage was enhanced in the honokiol-treated cells (FIG. 26C).

CH12.hCD40-LMP1 B cells = assay: CD40/LMP1 mediated cytokine and IgM production; format: cell-based, mouse
Method: IL-6 and TNF-a levels in culture supernatants were determined by ELISA. Subsequent IgM production by CH12.LX cells is also affected, as determined by assaying IgM secretion by CH12.hCD40-LMP1 cells. IgM secretion was measured by hemolytic plaque assay, as previously described (GA Bishop. 1991. J. Immunol. 147(4): 1107-1114).

rat papillary muscles = assay: glucose uptake by insulin

Q: `C=CCc1ccc(O)c(-c2ccc(O)c(CC=C)c2)c1` [HNK, Honokiol] was tested. Which IC50 ([1]; drug sensitive RPM18226, U266 and MM.1S cells, 48 h, read-out: fifty percent inhibition (IC50) at 48 h) did it give?
A: Its IC50 is 8 to 10 µg/mL (≈ 30 to 37.5 µM).

Q: And the IC50 ([1]; including Melphalan-, Doxorubicin- and Dex-resistant cell lines, read-out: IC50 of growth inhibition of MM cell lines)?
A: Its IC50 is under 10 µg/mL.

Q: What about the “growth of drug resistant cell lines” value ([1]; RPM18226-Dox40, RPM18226-LR5 and MM.1R cells, 48 h) of the same compound?
A: Its value is “IC50 values similar to parental drug-sensitive cell lines”.

Q: What about the “phosphorylation of Akt, p44/42 MAPK, Src at low concentrations” value ([2]; 2.7, 6.7 or 13.3 μg/ml, 2, 6 or 24 h) of the same compound?
A: The value was “inhibits phosphorylation of Akt at low concentrations but not p44/42 MAPK or Src”.

Q: And the “phosphorylation of AKT, p44/42 MAPK, and Src” value ([2]; 20, 30, 40 or 45 μg/ml, 1 h)?
A: The value was “inhibits phosphorylation of AKT, p44/42 MAPK, and Src”.

Q: What about the “cleavage of caspases and PARP” value ([3]; 12 and 24 h) of the same compound?
A: The value was “Cleavage of caspases 7, 8, 9 and PARP were induced”.

Q: And the “release of AIF” value ([3]; 24 h)?
A: Its value is “induced release of mitochondrial pro-apoptotic protein AIF to cytosol”.

Q: And the “TNF-induced apoptosis (Live/Dead assay)” value (KBM-5 cells)?
A: The value was 65%.

Q: What about the “CD40/LMP1 mediated IL-6, TNF-a production” value (CH12.hCD40-LMP1 B cells; CH12.LX cells transfected with hCD40-LMP1, not IL-10 or IL-4) of the same compound?
A: The value was “inhibits CD40/LMP1 mediated IL-6, TNF-a production in a dose-dependent manner”.

Q: What about the “IgM secretion (hemolytic plaque assay)” value (CH12.hCD40-LMP1 B cells; CH12.hCD40-LMP1 cells) of the same compound?
A: The value was “inhibited IgM production”.

Q: What about the “glucose uptake by insulin” value (rat papillary muscles) of the same compound?
A: Its value is “potentiates glucose uptake by insulin”.
